Measured values as given in article PMC5581131, “The novel sphingosine-1-phosphate receptors antagonist AD2900 affects lymphocyte activation and inhibits T-cell entry into the lymph nodes” (Oncotarget, 2017).

Tested on: human PBMCs
Assay: 5-day MLR with Et-18-OCH3, BAPTA-AM or 8-bromo-cAMP preincubation, analogues present throughout
Format: cell-based
Settings: 2 μM; 1 hour preincubation with the inhibitors
Experimental: To determine whether the effect of inhibition of AD2900 on PBMC proliferation is dependent on the same signal transduction pathways, we next examined the capacities of the intracellular Ca^2+ chelator-BAPTA-AM, phosphatidylinositol-specific PLC inhibitor-Et-18-OCH3, and cell-permeate exogenous cAMP-8-bromo-cAMP to alter the suppressive effect of AD2900 and FTY720 on PBMC proliferation. S1P served as a positive control (Figures 2A, 2B, and 2C, respectively). PBMCs were pre-incubated for 1 hour with the inhibitors before the addition of 2 μM AD2900, FTY720, or S1P in the MLR experiment. The inhibitors and the analogues were present in the culture throughout the allogeneic activation. AD2900 suppression of PBMC proliferation was reduced from 59% ± 3% to 32% ± 7% by the exogenous cAMP. BAPTA-AM also partially reversed AD2900 suppression of PBMC proliferation from 59% ± 3% to 32% ± 3%, yet Et-18-OCH3 had no effect (Figure 2A).
Figure 2 Effect of AD2900 on proliferation is dependent on cAMP reduction and calcium signal transduction The effect of Edelfosine (Et-18-OCH3) (Et), BAPTA-AM (BAPTA), or 8-bromo-cAMP (8-b-CAMP) on the inhibition of PBMC proliferation was tested in a 5-day MLR experiment. The cells were incubated with 1 μM Edelfosine, 0.2 μM BAPTA-AM, or 5 μM 8-bromo-cAMP for 1 hour before the addition of sphingolipid analogues, 2 μM AD2900 (AD) (A), FTY720 (FTY) (B), or S1P (C). Significances are compared to AD2900/FTY/S1P without preincubation, respectively. Graphs summarize the results of at least four independent experiments. Results of Student’s t-test: *(P < 0.05, two-tailed test), ** (P < 0.01, two-tailed test).
Human PBLs were collected from human whole blood collected from healthy donors. Subsequently, the cells were centrifuged on a Ficoll-Paque gradient (Fresenius Kabi Norge AS, Oslo, Norway) and were isolated from the interphase layer. For the human MLR experiment, PBMCs from one healthy donor were pretreated for 1 day with AD2900, AD2730, AD2750, YZ297, YZ158, FTY720, or SEW2871. After 24 h, cells were washed and plated at a concentration of 5 × 10^4 cells/well in round bottom 96-well plates containing RPMI-1640 medium Supplemented with 10% human AB serum, 1% penicillin/streptomycin, and 1% l-glutamine (Beit Haemek, Israel). PBMCs from a second donor were irradiated at 3000 γ dosage and added to the plate in a 1:1 ratio with the first donor cells. The cells were cultured for 5 days. For the thymidine incorporation assay, after 4 days of co-culture, cells were pulsed with ^3H-thymidine at 1 μCi (0.037MBq) per well (PerkinElmer, MA, USA) for 16 additional hours and then harvested onto glass-fiber filters. ^3H-thymidine incorporation was measured using Top Count. NXT (PerkinElmer, UK). In other experiments, the supernatant was harvested after 5 days of co-culture for IFN-γ and TNF-α cytokine ELISA measurements (eBioscience, CA, USA). The cells were then collected for assessing apoptosis by FACS in MACSQuant analyzer (Miltenyi Biotech, Germany). In another set of experiments, the PBMCs of two donors were mixed. Sphingolipid analogues were then added to the culture and sustained through the 5 days of the MLR experiment.

CCCCCCCCCCCCC/C=C/[C@@H](O)[C@@H](N)COP(=O)(O)O [S1P, Sphingosine-1-phosphate]
effect of Et-18-OCH3, BAPTA-AM and 8-bromo-cAMP on suppression of PBMC proliferation: reversed by all three inhibitors
